# Laboratory results from US10377698B2, “Diphenethylamine derivatives which are inter alia useful as analgesics and method for their production” (UNIVERSITY OF INNSBRUCK, priority 2015, dated 2019).
# Counter-ions that a name gives are not always drawn. Like-named read-outs stand apart in the source and are kept apart here.
# How the values were obtained:
# [1] = set-up: species or system mice; settings: mouse, in vivo, sc
# KOR [2] = target: T1, KOR (Homo sapiens, UniProt P41145); assay: biochemical; assay type: biochemical; set-up: expressed in transfected cells; host or cells: CHO cells (membranes); settings: for Emax: read-out: [35S]GTPγS binding KOR Emax
# human DOR = target: T2, human DOR (Homo sapiens, UniProt P41143); assay: Opioid receptor binding assay, competition binding, CHO cell membranes (DOR); settings: membranes from CHO cells stably expressing human DOR; read-out: Affinity Ki DOR
# T2 construct: expressed in transfected cells; host or cells: CHO cells (membranes)
# KOR [3] = target: T1, KOR; assay: KOR-mediated β-arrestin2 recruitment, DiscoveRx PathHunter assay, U2OS-hMOR-β-arrestin2 cells; assay type: cell-based; settings: for Emax: read-out: β-arrestin2 recruitment assay Emax
# KOR [4] = target: T1, KOR; assay: biochemical; assay type: binding; set-up: expressed in transfected cells; host or cells: CHO cells (membranes)
# human MOR = target: T3, human MOR (Homo sapiens, UniProt P35372); assay: Opioid receptor binding assay, competition binding, CHO cell membranes (MOR); settings: membranes from CHO cells stably expressing human MOR; read-out: Affinity Ki MOR
# T3 construct: expressed in transfected cells; host or cells: CHO cells (membranes)
# [5] = read-out: [35S]GTPγS binding KOR EC50
# T1 sequence (P41145 whole entry): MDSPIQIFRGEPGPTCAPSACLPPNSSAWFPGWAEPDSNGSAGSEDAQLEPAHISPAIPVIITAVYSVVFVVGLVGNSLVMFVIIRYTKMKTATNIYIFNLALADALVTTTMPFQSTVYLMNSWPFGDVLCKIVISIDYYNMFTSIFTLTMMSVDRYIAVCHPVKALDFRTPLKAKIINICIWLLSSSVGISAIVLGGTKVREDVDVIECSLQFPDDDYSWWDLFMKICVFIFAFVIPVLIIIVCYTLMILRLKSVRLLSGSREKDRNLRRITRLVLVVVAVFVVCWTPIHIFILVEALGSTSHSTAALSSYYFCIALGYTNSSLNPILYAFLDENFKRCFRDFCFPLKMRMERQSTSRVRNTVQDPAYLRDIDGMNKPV
# T3 sequence (P35372 whole entry): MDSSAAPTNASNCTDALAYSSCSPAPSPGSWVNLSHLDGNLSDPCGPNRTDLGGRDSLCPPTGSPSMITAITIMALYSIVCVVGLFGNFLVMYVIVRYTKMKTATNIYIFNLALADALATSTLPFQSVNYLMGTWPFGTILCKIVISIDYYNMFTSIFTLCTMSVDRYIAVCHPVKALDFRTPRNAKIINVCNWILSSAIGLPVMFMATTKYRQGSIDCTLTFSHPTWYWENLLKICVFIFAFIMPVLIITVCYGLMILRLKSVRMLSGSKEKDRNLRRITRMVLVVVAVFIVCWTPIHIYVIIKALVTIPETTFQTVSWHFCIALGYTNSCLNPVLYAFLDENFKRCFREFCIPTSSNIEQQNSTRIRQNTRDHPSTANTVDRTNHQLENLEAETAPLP
# T2 sequence (P41143 whole entry): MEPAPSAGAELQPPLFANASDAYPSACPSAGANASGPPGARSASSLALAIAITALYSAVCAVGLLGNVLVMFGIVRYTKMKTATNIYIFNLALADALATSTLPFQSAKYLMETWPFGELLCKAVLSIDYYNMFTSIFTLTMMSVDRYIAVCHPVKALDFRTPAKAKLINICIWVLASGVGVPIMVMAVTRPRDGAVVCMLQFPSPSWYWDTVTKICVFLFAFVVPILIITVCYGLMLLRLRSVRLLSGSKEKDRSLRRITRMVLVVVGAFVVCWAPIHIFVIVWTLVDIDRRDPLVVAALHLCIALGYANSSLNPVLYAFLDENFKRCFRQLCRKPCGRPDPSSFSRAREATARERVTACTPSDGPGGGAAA
smiles,measurement,setting,value
Oc1cccc(CCN(CCc2cccc(O)c2)CC2CC2)c1,melting point,,106 to 107 °C
C=CCN(CCc1cccc(O)c1)CCc1cccc(O)c1,melting point,,104 to 106 °C
CC(C)CCN(CCc1cccc(O)c1)CCc1cccc(O)c1,melting point,,71 to 72 °C
CCCCN(CCc1cccc(O)c1)CCc1cccc(O)c1,melting point,,62 to 64 °C
CCCCCN(CCc1cccc(O)c1)CCc1cccc(O)c1,melting point,,70 to 72 °C
CCCCCCN(CCc1cccc(O)c1)CCc1cccc(O)c1,melting point,,75 to 76 °C
Oc1ccc(CCN(CCc2cccc(O)c2)CC2CCCCC2)cc1,melting point,,155 to 157 °C
C=CCN(CCc1ccc(O)cc1)CCc1cccc(O)c1,melting point,,103 to 105 °C
CCCCN(CCc1ccc(O)cc1)CCc1cccc(O)c1,melting point,,65 to 68 °C
Oc1ccc(CCN(CCc2cccc(O)c2)CC2CC2)cc1,melting point,,104 to 105 °C
Oc1cccc(CCN(CCc2ccccc2)Cc2ccccc2)c1F,melting point,,126 to 128 °C
Oc1ccc(CCN(CCc2ccccc2)CC2CCCC2)cc1,melting point,,150 to 153 °C
CC(C)CCN(CCc1ccccc1)CCc1cccc(O)c1,melting point,,149 to 150 °C
Oc1cccc(CCN(CCc2ccccc2)C2CCC2)c1,melting point,,100 to 101 °C
Nc1cccc(CCN(CCc2ccccc2)CC2CCC2)c1 (as salt: hydrochloride),melting point,,68 to 70 °C
"Oc1cccc(CCN(CCc2ccccc2)CC2CCCC2)c1 [Compound 2, 3-[2-[(Cyclopentylmethyl)(phenethyl)amino]ethyl]phenol]",melting point,,154 to 156 °C
same,ED50 writhing test,[1],"0.54 mg/kg, s.c."
same,Relative analgesic potency to HS665,[1],3.5
same,Relative analgesic potency to HS666,[1],6.0
same,"Relative analgesic potency to U50,488",[1],2.9
same,EC50,KOR [2],4.19 nM
same,Emax,KOR [2],72.9%
same,Ki,human DOR,5210 nM
same,EC50,KOR [3],1340 nM
same,Emax,KOR [3],83%
"Oc1cccc(CCN(CCc2ccccc2)CC2CCCCC2)c1 [Compound 3, 3-[2-[(Cyclohexylmethyl)(phenethyl)amino]ethyl]phenol]",melting point,,150 to 151 °C
same,ED50 writhing test,[1],"0.97 mg/kg, s.c."
same,Relative analgesic potency to HS665,[1],2.0
same,Relative analgesic potency to HS666,[1],3.3
same,"Relative analgesic potency to U50,488",[1],1.6
same,EC50,KOR [2]; [5],0.23 nM
same,Emax,KOR [2],61.9%
same,Ki,KOR [4],0.088 nM
same,Ki,human MOR,436 nM
same,Ki,human DOR,2140 nM
same,Bias factor,KOR [3],2909
same,EC50,KOR [3],1360 nM
same,Emax,KOR [3],72.2%
"Oc1cccc(CCN(CCc2ccccc2)Cc2ccccc2)c1 [Compound 4, 3-[2-[Benzyl(phenethyl)amino]ethyl]phenol]",melting point,,177 to 178 °C
same,Relative analgesic potency to HS665,[1],1.6
same,Relative analgesic potency to HS666,[1],2.7
same,"Relative analgesic potency to U50,488",[1],1.3
same,EC50,KOR [2]; [5],4.65 nM
same,Emax,KOR [2],79.5%
same,Ki,KOR [4]; read-out: Affinity Ki KOR,0.71 nM
same,Ki,human MOR,463 nM
same,Ki,human DOR,1860 nM
same,Bias factor,KOR [3],1172
same,EC50,"KOR [3]; DiscoveRx PathHunter assay, U2OS-hMOR cells, read-out: β-arrestin2 recruitment assay EC50",4450 nM
same,Emax,KOR [3],37.3%
"Oc1cccc(CCN(CCc2cccc(O)c2)CC2CCC2)c1 [Compound 12, 3,3′-[2,2′-(Cyclobutylmethylazanediyl)bis(ethane-2,1-diyl)]diphenol]",ED50 writhing test,[1],"1.59 mg/kg, s.c."
same,Relative analgesic potency to HS665,[1],1.2
same,Relative analgesic potency to HS666,[1],2.0
same,"Relative analgesic potency to U50,488",[1],1.0
same,EC50,KOR [2],5.51 nM
same,Emax,KOR [2],71.4%
same,Ki,KOR [4],0.34 nM
same,Ki,human MOR,230 nM
same,Ki,human DOR,4180 nM
"COc1cccc(CCN(CCc2ccc(O)cc2)CC2CCCC2)c1 [Compound 27, 4-[2-[(Cyclopentylmethyl)(3-methoxyphenethyl)amino]ethyl]phenol]",melting point,,74 to 77 °C
same,EC50,KOR [2],22.8 nM
same,Emax,KOR [2],73.6%
same,Ki,KOR [4],0.17 nM
same,Ki,human MOR,158 nM
same,Ki,human DOR,6240 nM
"Oc1cccc(CCN(CCc2cccc(O)c2)CC2CCCCC2)c1 [Compound 29, 3,3′-[2,2′-(Cyclohexylmethylazanediyl)bis(ethane-2,1-diyl)]diphenol]",melting point,,157 to 158 °C
same,EC50,KOR [2],10.6 nM
same,Emax,KOR [2],92.2%
same,Ki,KOR [4],0.18 nM
same,Ki,human MOR,219 nM
"Oc1cccc(CCN(CCc2cccc(O)c2)CC2CCCC2)c1 [Compound 39, 3,3′-[2,2′-(Cyclopentylmethylazanediyl)bis(ethane-2,1-diyl)]diphenol]",melting point,,113 °C
same,EC50,KOR [2],14.2 nM
same,Emax,KOR [2],83.6%
same,Ki,KOR [4],0.38 nM
same,Ki,human MOR,702 nM
"Oc1cccc(CCN(CCc2ccccc2)CC2CCC2)c1F [Compound 49, 3-[2-[(Cyclobutylmethyl)(phenethyl)amino]ethyl]-2-fluorophenol]",EC50,KOR [2]; [5],6.9 nM
same,Emax,KOR [2],66.1%
same,Ki,KOR [4],0.022 nM
same,Ki,human MOR,414 nM
same,Bias factor,KOR [3],82
same,EC50,KOR [3],859 nM
same,Emax,KOR [3],57.5%
"Oc1cccc(CCN(CCc2ccccc2)CC2CCCCC2)c1F [Compound 51, 3-[2-[(Cyclohexylmethyl)(phenethyl)amino]ethyl]-2-fluorophenol]",melting point,,129 to 130 °C
same,ED50 writhing test,[1],"1.20 mg/kg, s.c."
same,Relative analgesic potency to HS665,[1],1.6
same,Relative analgesic potency to HS666,[1],2.7
same,"Relative analgesic potency to U50,488",[1],1.3
same,EC50,KOR [2]; [5],2.77 nM
same,Emax,KOR [2],84.6%
same,Ki,KOR [4],0.046 nM
same,Ki,human MOR,543 nM
same,Bias factor,KOR [3],1514
same,EC50,KOR [3],4180 nM
same,Emax,KOR [3],48.4%
"Oc1cccc(CCN(CCc2cccc(O)c2F)CC2CCC2)c1 [Compound 53, 3-[2-[(Cyclobutylmethyl)(3-hydroxyphenethyl)amino]ethyl]-2-fluorophenol]",EC50,KOR [2]; [5],1.49 nM
same,Emax,KOR [2],53.1%
same,Ki,KOR [4]; read-out: Affinity Ki KOR,0.12 nM
same,Ki,human MOR,548 nM
same,Ki,human DOR,4750 nM
same,Bias factor,KOR [3],263
same,EC50,KOR [3],529 nM
same,Emax,KOR [3],41.2%
"Oc1cccc(CCN(CCc2ccccc2)CC2CCC2)c1 [HS665, reference compound]",ED50 writhing test,[1],"1.91 mg/kg, s.c."
same,Ki,human DOR,> 10000 nM
"Cl.Oc1cccc(CCN(CCc2ccccc2)CC2CC2)c1 [HS666, 3-[2-[(Cyclopropylmethyl)(phenethyl)amino]ethyl]phenol Hydrochloride, reference compound]",ED50 writhing test,[1],"3.23 mg/kg, s.c."
same,Relative analgesic potency to HS665,[1],0.6
same,Relative analgesic potency to HS666,[1],1.0
same,"Relative analgesic potency to U50,488",[1],0.5
same,EC50,KOR [2]; [5],35 nM
same,Emax,KOR [2],53.4%
same,Ki,KOR [4]; read-out: Affinity Ki KOR,5.9 nM
same,Ki,human MOR,826 nM
same,Ki,human DOR,> 10000 nM
same,Bias factor,KOR [3],18
same,EC50,KOR [3],502 nM
same,Emax,KOR [3],25%
